Reference: patent publication US20220265657A1, “ADMINISTRATION METHOD AND DOSAGE REGIMEN FOR TREATMENT OF NEURODEGENERATIVE DISEASES USING TRAMETINIB AND MARKERS” (GENUV INC., priority 2019, published 2022)

Columns and labels:
primary cortical neurons [1] = test: Western blot of primary cortical neurons; assay type: cell-based, ICR mice; conditions: Aβ1-42 oligomers alone
Method: (§1) Lysates were centrifuged at 13,000 rpm for 20 min at 4° C., and the protein content in the supernatant was determined using the Bradford assay (Bio-rad, Hercules, Calif.). For subcellular fractionation, cells were lysed with lysis buffer (250 mM Sucrose, 20 mM HEPES, pH 7.4, 10 mM KCl, 1.5 mM MgCl2, 1 mM EGTA, 1 mM EDTA, 1 mM DTT) containing protease inhibitor for 30 min on ice, followed by centrifugation at 720 g for 5 min at 4° C. Supernatants were centrifuged at 15,000 rpm for 10 min at 4° C., and the resulting supernatant was used as the cytosol fraction. After centrifugation at 720 g for 5 min, pellets were washed with lysis buffer and dissolved in nuclear lysis buffer (50 mM Tris HCl, pH 8.0, 150 mM NaCl, 1% NP40, 0.5% sodium deoxycholate, 0.1% SDS, 10% glycerol) as the nuclear fraction. Protein from each sample was subjected to 8%˜15% SDS-PAGE, and the resolved proteins were transferred to nitrocellulose or polyvinylidene fluoride membrane. The membranes were blocked with 5% nonfat milk powder in Tris-buffered saline/Tween 20 (TBST) for 1 h at room temperature, then incubated with anti-phospho-ERK (Cell signaling), anti-ERK (Cell signaling), anti-LAMP1 (Abcam), anti-LC3 (Cell signaling), anti-cathepsin B (Cell signaling), anti-p62 (Cell signaling), anti-p62 (5114, Cell signaling), anti-phospho-mTOR (5536, Cell signaling), anti-mTOR (2983, Cell signaling), anti-phospho-ULK1 (14202, Cell signaling), anti-ULK1 (8054, Cell signaling), anti-TFEB (852501, Biolegend), and anti-GAPDH (Cell signaling) overnight at 4° C.

primary cortical neurons [2] = test: Dendritic spine formation in primary cortical neurons; assay type: cell-based, ICR mice; conditions: Aβ1-42 oligomer alone
Method: Cell culture: SH-SY5Y neuroblastoma cells were cultured at 37° C., 5% CO2., in Dulbecco's Modified Eagle Medium/Ham's F-12 nutrient mixture (DMEM/F12) (Invitrogen, Carlsbad, Calif.) supplemented with 10% heat-inactivated fetal bovine serum containing 100 units/ml penicillin, 100 μg/ml streptomycin. Primary cortical neuron cultures were derived from embryo day 18 (E18) from ICR mice. The dissociated cells were plated on glass cover slips coated with poly-D-lysine in Neurobasal medium supplemented with 2% B27 (Invitrogen), 100 units/ml penicillin, 100 μg/ml streptomycin, and 2 mM L-glutamine. Primary NSCs from normal mice were isolated from the subventricular zone (SVZ) of 8 week-old C57BL/6 mice brain. NSCs from adult Tg2576 mice brain were obtained from Seoul National University Hospital. The neurospheres were cultured as previously described (M. Y. Kim, B. S. Moon, K. Y. Choi, Isolation and maintenance of cortical neural progenitor cells in vitro. Methods Mol Biol 1018, 3-10 (2013)). For neurosphere culture from normal mice, the cells were dissociated from brain tissue and grown in N2 medium in 25 cm^2 flasks (SPL, Gyeonggi-do, Korea) in suspension. bFGF (20 ng/ml, Peprotech, Princeton, N.J.) and human EGF (20 ng/ml, Peprotech) were added to the media to allow the cells to form neurospheres. For analyses, NSCs were cultured as a monolayer. For differentiation of NSCs, the neurospheres were dissociated with TrypLE (Invitrogen), plated on 15 μg/ml poly-L-ornithine-(Sigma-Aldrich, St. Louis, Mo.) and 10 μg/ml fibronectin (Gibco)-coated plates, and cultured in bFGF- and EGF-depleted N2 medium for 2 days. For neurosphere culture from Tg2576 mice, the cells were grown in DMEM/F12 supplemented with B27 supplements in 75 cm^2 flasks (SPL) in suspension. bFGF (10 ng/ml) and human EGF (10 ng/ml) were added to the media to allow the cells to form neurospheres. […]

SH-SY5Y cells = test: Western blot of SH-SY5Y cell lysates; assay type: cell-based; conditions: co-treatment with trametinib, in the presence of Aβ1-42 oligomers
Method: Cell culture: SH-SY5Y neuroblastoma cells were cultured at 37° C., 5% CO2., in Dulbecco's Modified Eagle Medium/Ham's F-12 nutrient mixture (DMEM/F12) (Invitrogen, Carlsbad, Calif.) supplemented with 10% heat-inactivated fetal bovine serum containing 100 units/ml penicillin, 100 μg/ml streptomycin. Primary cortical neuron cultures were derived from embryo day 18 (E18) from ICR mice. The dissociated cells were plated on glass cover slips coated with poly-D-lysine in Neurobasal medium supplemented with 2% B27 (Invitrogen), 100 units/ml penicillin, 100 μg/ml streptomycin, and 2 mM L-glutamine. Primary NSCs from normal mice were isolated from the subventricular zone (SVZ) of 8 week-old C57BL/6 mice brain. NSCs from adult Tg2576 mice brain were obtained from Seoul National University Hospital. The neurospheres were cultured as previously described (M. Y. Kim, B. S. Moon, K. Y. Choi, Isolation and maintenance of cortical neural progenitor cells in vitro. Methods Mol Biol 1018, 3-10 (2013)). For neurosphere culture from normal mice, the cells were dissociated from brain tissue and grown in N2 medium in 25 cm^2 flasks (SPL, Gyeonggi-do, Korea) in suspension. bFGF (20 ng/ml, Peprotech, Princeton, N.J.) and human EGF (20 ng/ml, Peprotech) were added to the media to allow the cells to form neurospheres. For analyses, NSCs were cultured as a monolayer. For differentiation of NSCs, the neurospheres were dissociated with TrypLE (Invitrogen), plated on 15 μg/ml poly-L-ornithine-(Sigma-Aldrich, St. Louis, Mo.) and 10 μg/ml fibronectin (Gibco)-coated plates, and cultured in bFGF- and EGF-depleted N2 medium for 2 days. For neurosphere culture from Tg2576 mice, the cells were grown in DMEM/F12 supplemented with B27 supplements in 75 cm^2 flasks (SPL) in suspension. bFGF (10 ng/ml) and human EGF (10 ng/ml) were added to the media to allow the cells to form neurospheres. For inducing differentiation and AP expression, the neurospheres were dissociated with pipetting, plated on 15 μg/ml poly-L-ornithine- and 10 μg/ml fibronectin (Gibco)-coated plates, and cultured in bFGF- and EGF-depleted medium for 2 days.
as §1

Compound | decrease of mature cathepsin B level compared to non-treated neurons (CTL) (primary cortical neurons [1]) | decrease in number of dendritic spines compared to vehicle treated group (CTL) (primary cortical neurons [2]) | effect of trametinib on increasing mature cathepsin B and decreasing p62 (SH-SY5Y cells)
Aβ1-42 oligomers: cytotoxic oligomers of Aβ1-42 used to induce neurotoxic conditions | 26% | 24% | 
CO/C1=C\C(C)=C\[C@@H](C)[C@@H](O)[C@@H](C)C/C(C)=C/C=C/[C@H](OC)[C@@H]([C@@H](C)[C@@H](O)[C@H](C)[C@@]2(O)C[C@@H](O)[C@H](C)[C@@H](C(C)C)O2)OC1=O [bafilomycin A1] |  |  | eliminated the effect of trametinib
